Results reported in paper PMC9026148, “Pre-Clinical Study Evaluating Novel Protein Phosphatase 2A Activators as Therapeutics for Neuroblastoma” (Cancers, 2022).
Where two headings read alike, the source gives them in different places.

How the values were obtained:
SK-N-BE(2) flank tumors = experiment: SK-N-BE(2) flank tumor growth in athymic nude mice; format: in vivo, mouse; conditions: 50 mg/kg bid po
Description: SK-N-AS (1.8 × 10^6) or SK-N-BE(2) (1.5 × 10^6) cells in 25% Matrigel™ (BD Biosciences) were injected into the right flank of 6-week-old female athymic nude mice (Fredricks, Charles River, Wilmington, MA, USA) (n = 5 for SK-N-AS vehicle treated, n = 7 for SK-N-AS 792 or 1154 treatment and all SK-N-BE(2) experimental groups). Calipers were used to measure tumors three times per week, and volumes were calculated by the formula (width^2 × length)/2, where width was the smaller measurement. After tumors reached a volume of 100 mm^3, animals were randomized to three groups to receive 100 µL of either vehicle (N,N-dimethylacetamide (DMA, 271012, Sigma Aldrich) and Kolliphor® HS 15 (Solutol, 42996, Sigma Aldrich)), 792 (50 mg/kg in DMA and Solutol), or 1154 (50 mg/kg in DMA and Solutol) twice daily by oral gavage; dosing based on previously published in vivo cancer models. Animals were weighed weekly and were humanely euthanized in their home cages with CO2 and cervical dislocation when control tumors reached 2000 mm^3; either 9 (SK-N-AS tumors) or 19 days (SK-N-BE(2) tumors) following treatment initiation, or when IACUC parameters were met. Power analysis was completed prior to the study.

SH-EP cells = experiment: Cell cycle analysis by flow cytometry (PI), SH-EP; format: cell-based, human; conditions: 24 h; for Mean % G1 (± SEM) / Mean % G2 (± SEM) / Mean % S (± SEM) / percentage of cells in the S phase / percentage of cells in G1: SH-EP, 15 μM; for percentage of cells in the S phase: untreated 30.9 ± 2.1; for percentage of cells in G1: untreated 42.6 ± 2.4
Description: (§1) To evaluate cell cycle, cells (1 × 10^6) were plated and maintained in respective media with reduced FBS (4%) for cell synchronization. […] Cells were washed with phosphate-buffered saline (PBS) and fixed at 4 °C for 30 min with 100% ethanol. Following a second PBS wash, cells were stained with propidium iodide (PI, Invitrogen, Waltham, MA, USA), RNAse A (0.1 mg/mL, Qiagen, Germantown, MD, USA), and 0.1% TritonX (Active Motif, Carlsbad, CA, USA), and FACSCalibur^TM Flow Cytometer (BD Biosciences, Franklin Lakes, NJ, USA) was used for examination. FlowJo software (FlowJo, LLC, Ashland, OR, USA) was used for data analysis. Data reported as mean percentage cells in phase ± SEM.

SK-N-BE(2) cells [1] = experiment: CellTiter 96 proliferation, SK-N-BE(2); format: cell-based; conditions: Homo sapiens, SKNBE2, 24 h
Description: (§2) CellTiter 96® Aqueous One Solution Cell Proliferation assay (Promega, Madison, WI, USA) was used to examine proliferation, and alamarBlue® assay (Thermo Fisher Scientific, Inc.) was used to evaluate viability. Cells, concentrations ranging from 5 × 10^3 to 1.5 × 10^4, depending on cell type due to wide variation in growth characteristics between established cell lines and PDX cells, were plated in 96-well plates and treated with increasing doses of 792 or 1154 for 24 h. CellTiter 96® or alamarBlue® dye (10 µL) was added for proliferation and viability assays, respectively. A microplate reader (Epoch Microplate Spectrophotometer, BioTek Instruments, Winooski, VT) measured absorbance at 490 nm for CellTiter 96® and at 570 nm for alamarBlue®, using 600 nm as a reference. […] Experiments were completed with at least three biologic replicates, and data reported as fold change ± SEM. […]
(§3) Supplemental Table S1: Neuroblastoma cells had the highest sensitivity to 792 and 1154.
(§4) (A) SK-N-AS and (B) SK-N-BE(2) cells (1.5 x 104) were plated in 96-well plates and treated with increasing doses of nine PP2A activating compounds for 24 hours. Compounds 792 and 1154 had the lowest LD50s of the nine compounds investigated in both cell lines.
(§5) Supplemental Figure S4: SK-N-AS cells were treated with FTY720 (0, 5 μM), 792 (10 μM), or 1154 (10 μM) for 24 hours and PP2A activity was measured. […]

CYP-3A4 = target: T1, CYP-3A4 (Homo sapiens, UniProt P08684); experiment: Time-dependent CYP-3A4 inhibition (midazolam turnover, human liver microsomes); format: in vitro ADME; conditions: for IC50: 50% inhibition of midazolam turnover
T1 construct: tissue Bioduro, LLC (contract lab that ran the assay); host or cells: human liver microsomes
Description: Time-dependent CYP-3A4 inhibition assays were performed by Bioduro, LLC. In brief, the test compound is pre-incubated with human liver microsomes (0.25 mg/mL in reaction) and NADPH (0.5 mM in reaction) for 5, 30, and 60 min to allow metabolite formation. Midazolam, a known standard substrate of CYP-3A4, is added to give 2.5 µM reaction concentration, and consumption (microsome stability) of midazolam is assayed as above.

WAC2 cells = experiment: Cell cycle analysis by flow cytometry (PI), WAC2; format: cell-based, human; conditions: WAC2, 15 μM, 24 h; for percentage of cells in the S phase: untreated 38.2 ± 1.0; for percentage of cells in G1: untreated 44.7 ± 1.6
Description: as §1

SK-N-BE(2) cells [2] = experiment: alamarBlue viability, SK-N-BE(2); format: cell-based, human; conditions: 24 h
Description: as §2, §3, §4, §5

[3] = 5 min pre-incubation, read-out: IC50 at Pre-incubation time 5 min
[4] = 30 min pre-incubation, read-out: IC50 at Pre-incubation time 30 min
[5] = 60 min pre-incubation, read-out: IC50 at Pre-incubation time 60 min

T1 sequence (P08684 whole entry): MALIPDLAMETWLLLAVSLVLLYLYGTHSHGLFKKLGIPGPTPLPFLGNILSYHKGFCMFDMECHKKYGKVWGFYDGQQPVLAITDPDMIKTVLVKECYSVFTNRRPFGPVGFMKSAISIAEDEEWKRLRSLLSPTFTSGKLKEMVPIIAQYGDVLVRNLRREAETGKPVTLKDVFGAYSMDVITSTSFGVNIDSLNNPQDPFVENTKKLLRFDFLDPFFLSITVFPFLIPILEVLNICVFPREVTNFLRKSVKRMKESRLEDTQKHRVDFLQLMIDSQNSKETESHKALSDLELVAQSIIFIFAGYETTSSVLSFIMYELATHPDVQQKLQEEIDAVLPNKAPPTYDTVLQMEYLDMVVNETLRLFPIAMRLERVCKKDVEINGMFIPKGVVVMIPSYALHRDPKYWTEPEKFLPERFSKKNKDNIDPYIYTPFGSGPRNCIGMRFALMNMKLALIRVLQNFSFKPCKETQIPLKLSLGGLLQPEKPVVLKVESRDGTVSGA

| SMILES | tumor volume (SK-N-BE(2) flank tumors; after 17 days, vehicle 2362 ± 53) | percent of cells in subG1 (SH-EP cells; SH-EP cells) | Mean % G1 (± SEM) (SH-EP cells) | Mean % G2 (± SEM) (SH-EP cells) | Mean % S (± SEM) (SH-EP cells) | percentage of cells in the S phase (SH-EP cells) | percentage of cells in G1 (SH-EP cells) | IC50 (SK-N-BE(2) cells [1]) | IC50 (CYP-3A4; [3]) | IC50 (CYP-3A4; [4]) | IC50 (CYP-3A4; [5]) | CYP-3A4 inhibition (CYP-3A4; time-dependent inhibition assay) | Mean % G1 (± SEM) (WAC2 cells) | Mean % G2 (± SEM) (WAC2 cells) | Mean % S (± SEM) (WAC2 cells) | percentage of cells in the S phase (WAC2 cells) | percentage of cells in G1 (WAC2 cells) | LD50 (SK-N-BE(2) cells [2]) | tumor volume (SK-N-BE(2) flank tumors; by day 19, vehicle 2362 ± 53) | IC50 shift (CYP-3A4; human, human liver microsomes, probe midazolam (2.5 µM), ratio IC50 5 min / 60 min pre-incubation) |
| --- | --- | --- | --- | --- | --- | --- | --- | --- | --- | --- | --- | --- | --- | --- | --- | --- | --- | --- | --- | --- |
| O=S(=O)(N[C@H]1COC[C@@H](n2c3ccc(Cl)cc3c3cc(Cl)ccc32)[C@@H]1O)c1ccc(OC(F)(F)F)cc1 [ATUX-792] | 1383 ± 243 mm^3 | significant increase in the percent of cells in subG1 | 58.4 (± 2.3) % | 12.1 (± 2.6) % | 21.0 (± 1.4) % | 21 ± 1.4% | 58.4 ± 2.3% | 17.2 µM | > 50 µM | > 50 µM | > 50 µM | no CYP-3A4 inhibition | 54.5 (± 2.3) % | 14.3 (± 1.1) % | 25.4 (± 2.5) % | 25.4 ± 2.5% | 54.5 ± 2.3% | 17.2 µM | – | – |
| O=S(=O)(NC1CCCC(N2c3ccccc3CCc3ccccc32)C1O)c1ccc(OC(F)(F)F)cc1 (centres unmarked) [DBK-1154] | – | – | 52.0 (± 2.2) % | 14.6 (± 4.9) % | 26.3 (± 2.0) % | 26.3 ± 2% | 52 ± 2.2% | 23.8 µM | 42 µM | 27 µM | 18 µM | – | 49.6 (± 2.4) % | 19.0 (± 1.5) % | 28.4 (± 1.6) % | 28.4 ± 1.6% | 49.6 ± 2.4% | 16.6 µM | 1628 ± 362 mm^3 | 2.4 |
